Data taken from ChEMBL document CHEMBL1133556, “Carbonic anhydrase inhibitors: water-soluble 4-sulfamoylphenylthioureas as topical intraocular pressure-lowering agents with long-lasting effects” (J Med Chem, 2000).
Values after ≈ are worked out from the molar mass of the structure shown.

Experiments:
[1] = target: Carbonic anhydrase 1 (Homo sapiens, UniProt P00915)
Description: Inhibitory activity against human recombinant carbonic anhydrase I

[2] = organism: Oryctolagus cuniculus
Description: Tested in vivo for lowering IOP (Intraocular Pressure)in Normotensive Rabbits at pH 7.0 after treatment with 50 uL, activity at 90 minutes

[3] = target: T1, Carbonic anhydrase 4 (Bos taurus, UniProt Q95323)
T1 sequence (Q95323 whole entry): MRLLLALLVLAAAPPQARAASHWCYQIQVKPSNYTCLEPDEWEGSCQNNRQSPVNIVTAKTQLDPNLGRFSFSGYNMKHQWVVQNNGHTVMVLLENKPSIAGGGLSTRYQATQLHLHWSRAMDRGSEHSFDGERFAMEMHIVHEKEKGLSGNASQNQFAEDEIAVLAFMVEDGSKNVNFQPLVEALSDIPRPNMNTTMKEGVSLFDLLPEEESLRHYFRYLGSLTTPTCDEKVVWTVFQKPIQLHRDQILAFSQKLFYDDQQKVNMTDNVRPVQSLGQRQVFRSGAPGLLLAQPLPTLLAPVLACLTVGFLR
Description: Inhibitory activity against bovine carbonic anhydrase IV from lung microsomes

[4] = tested on: Oryctolagus cuniculus; assay: Tested in vivo for lowering IOP (Intraocular Pressure)in Normotensive Rabbits at pH 7.0 after treatment with 50 uL, activity at 30 minutes; type: functional
[5] = target: Carbonic anhydrase 2 (Homo sapiens, UniProt P00918)
Description: Inhibitory activity against human recombinant carbonic anhydrase II

[6] = organism: Oryctolagus cuniculus; remark: listed apart in the source
[7] = organism: Oryctolagus cuniculus; remark: listed apart in the source
Description: Tested in vitro for transcorneal accession rates (corneal permeability) against intact cornea

[8] = tested on: Oryctolagus cuniculus; assay: Tested in vivo for lowering IOP (Intraocular Pressure)in Glaucomatous Rabbits at pH 7.0 after treatment with 50 uL, activity at 90 minutes; type: functional
[9] = organism: Oryctolagus cuniculus; remark: listed apart in the source
[10] = organism: Oryctolagus cuniculus; assay: Tested ex vivo for ocular tissue concentration against cornea after 2 hour of treatment with 50 uL; type: functional, organism-based
[11] = organism: Oryctolagus cuniculus; assay: Tested ex vivo for ocular tissue concentration against aqueous humor after 1 hour of treatment with 50 uL; type: functional, organism-based; conditions: Eye
[12] = organism: Oryctolagus cuniculus; assay: Tested ex vivo for ocular tissue concentration against ciliary process after 2 hour of treatment with 50 uL; type: functional, organism-based; conditions: Eye
[13] = organism: Oryctolagus cuniculus; remark: listed apart in the source
Description: Tested in vitro for transcorneal accession rates (corneal permeability) against cornea with no epithelium

[14] = physchem; conditions: buffer, pH 7.4
Description: Solubility (in uM) in pH 7.40 at 25 degree C

[15] = octanol/water
Description: Partition coefficient (logD) (chloroform/buffer)

[16] = tested on: Oryctolagus cuniculus; assay: Tested in vivo for lowering IOP (Intraocular Pressure)in Glaucomatous Rabbits at pH 7.0 after treatment with 50 uL, activity at 30 minutes; type: functional
[17] = organism: Oryctolagus cuniculus; assay: Tested ex vivo for ocular tissue concentration against ciliary process after 1 hour of treatment with 50 uL; type: functional, organism-based; conditions: Eye
[18] = organism: Oryctolagus cuniculus; assay: Tested ex vivo for ocular tissue concentration against cornea after 1 hour of treatment with 50 uL; type: functional, organism-based
[19] = organism: Oryctolagus cuniculus; assay: Tested ex vivo for ocular tissue concentration against aqueous humor after 2 hour of treatment with 50 uL; type: functional, organism-based; conditions: Eye
[20] = tested on: Oryctolagus cuniculus; assay: Tested in vivo for lowering IOP (Intraocular Pressure)in Glaucomatous Rabbits at pH 7.0 after treatment with 50 uL, activity at 60 minutes; type: functional
[21] = tested on: Oryctolagus cuniculus; assay: Tested in vivo for lowering IOP (Intraocular Pressure)in Normotensive Rabbits at pH 7.0. after treatment with 50 uL, activity at 90 minutes; type: functional
[22] = tested on: Oryctolagus cuniculus; assay: Tested in vivo for lowering IOP (Intraocular Pressure)in Normotensive Rabbits at pH 7.0 after treatment with 50 uL, activity at 60 minutes; type: functional
[23] = tested on: Oryctolagus cuniculus; assay: Tested in vivo for lowering IOP (Intraocular Pressure)in Glaucomatous Rabbits at pH 7.5 after treatment with 50 uL, activity at 30 minutes; type: functional
[24] = tested on: Oryctolagus cuniculus; assay: Tested in vivo for lowering IOP (Intraocular Pressure)in Glaucomatous Rabbits at pH 7.5 after treatment with 50 uL, activity at 60 minutes; type: functional
[25] = tested on: Oryctolagus cuniculus; assay: Tested in vivo for lowering IOP (Intraocular Pressure)in Glaucomatous Rabbits at pH 7.5 after treatment with 50 uL, activity at 90 minutes; type: functional

Chain of Carbonic anhydrase 1 (P00915 whole entry): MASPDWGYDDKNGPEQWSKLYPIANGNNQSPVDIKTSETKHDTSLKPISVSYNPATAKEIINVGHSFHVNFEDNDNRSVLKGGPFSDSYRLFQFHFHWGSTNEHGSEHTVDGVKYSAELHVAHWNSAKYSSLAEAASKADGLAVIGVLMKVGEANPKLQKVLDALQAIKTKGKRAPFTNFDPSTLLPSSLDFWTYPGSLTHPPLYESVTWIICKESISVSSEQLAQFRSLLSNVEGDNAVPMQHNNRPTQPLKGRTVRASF

Ki [1]	Ki [3]	Ki [5]	solubility [14]	logD [15]	Structure (SMILES)	Delta IOP [2]	Delta IOP [6]	kin [7]	Delta IOP [9]	kin [13]	Delta IOP [22]	also measured
45 nM	33 nM	11 nM			NS(=O)(=O)c1ccc(N/C(S)=N\CCCC(=O)O)cc1	2.9 mmHg	3.1 mmHg					Delta IOP [4]: 5 mmHg
27 nM	11 nM	6 nM	51 mM (≈ 17.7 mg/mL)	1.759	NC(=O)CC(/N=C(\S)Nc1ccc(S(N)(=O)=O)cc1)C(=O)O (centres undefined)	6 mmHg	10.1 mmHg	3100 h⁻¹	7 mmHg	7800 h⁻¹		Delta IOP [8]: 15.5 mmHg; Concentration [10]: 54 µM; Concentration [11]: 285 µM; Concentration [12]: 12 µM; Delta IOP [16]: 10 mmHg; Concentration [17]: 47 µM; Concentration [18]: 141 µM; Concentration [19]: 43 µM; Delta IOP [20]: 13 mmHg
97 nM	55 nM	12 nM			NCCCCC(/N=C(\S)Nc1ccc(S(N)(=O)=O)cc1)C(=O)O (centres undefined)				0 mmHg		0 mmHg	Delta IOP [21]: 0 mmHg
28 nM	15 nM	3 nM	73 mM (≈ 23.3 mg/mL)	1.459	NS(=O)(=O)c1ccc(N/C(S)=N/C(CO)C(=O)O)cc1 (centres undefined)	9.1 mmHg		3400 h⁻¹	8 mmHg	8000 h⁻¹	9.5 mmHg	Delta IOP [23]: 10.4 mmHg; Delta IOP [24]: 15 mmHg; Delta IOP [25]: 17.5 mmHg
